Reference: paper PMC9367001 (Journal of Chemical Theory and Computation, 2022)

Biological target: IN05 HA trimer
Type: binding, influenza A/Indonesia/5/2005 (H5 subtype)

α2,6-linked sialyl lactosamine [6-SLN]
KD,MST: no detectable binding
